Experimental data taken from patent publication US20140294967A1, “STABLE NANOCOMPOSITION COMPRISING PACLITAXEL, PROCESS FOR THE PREPARATION THEREOF, ITS USE AND PHARMACEUTICAL COMPOSITIONS CONTAINING IT” (BBS Nanotechnology Llc., priority 2013, published 2014).

What was measured:
[1] = tested on: SK-OV-3 human ovary adenocarcinoma cells; test: comparative efficacy study in SK-OV-3 s.c. xenograft SCID mouse model of ovary cancer; type: in vivo, SCID mice; conditions: 5 mg/kg
Protocol: (§1) The table above illustrates the comparative efficacy study in SK-OV-3 s.c. xenograft SCID mouse model of ovary cancer. Tumor was induced in mice by implanting SK-OV-3 human ovary adenocarcinoma cells s.c. in upper region of back of SCID mice and allowing the tumors to develop to appreciable size over 24 days (70 mm3). The comparative efficacy study of six i.v. injection (day 24, 31, 38, 44, 51 and 58) of 5% glucose, paclitaxel (PACL) 5 mg/kg, NP-PACL 5 mg/kg and NP-PACL-OCT 1.7 mg/kg) was evaluated over 72 days. In this table there are: change in tumor volume of mice on 62nd day after tumor inoculation (data represent mean %±SEM of five mice per group), change in body weight of mice on 62nd day after tumor inoculation (Data represent mean±STDEV of five mice per group) and survival proportion at the end of the experiment.

[2] = body weight of mice during the SK-OV-3 xenograft efficacy study; type: in vivo, SCID mice; conditions: 5 mg/kg, six i.v. injections; 62nd day after tumor inoculation; mean ± STDEV of five mice
Protocol: as §1

CC(=O)O[C@H]1C(=O)[C@@]2(C)[C@H]([C@H](OC(=O)c3ccccc3)[C@]3(O)C[C@H](OC(=O)[C@H](O)[C@@H](NC(=O)c4ccccc4)c4ccccc4)C(C)=C1C3(C)C)[C@]1(OC(C)=O)CO[C@@H]1C[C@@H]2O [PACL, (2α,4α,5β,7β,10β,13α)-4,10-bis(acetyloxy)-13-{[(2R,3S)-3-(benzoylamino)-2-hydroxy-3-phenylpropanoyl]oxy}-1,7-dihydroxy-9-oxo-5,20-epoxytax-11-en-2-yl benzoate]
Change in tumor volume (control: 100%) ([1]; six i.v. injections (day 24, 31, 38, 44, 51, 58), 62nd day after tumor inoculation, mean % ± SEM of five mice): 86% ± 13% | Survival proportion at the end of the experiment ([1]; six i.v. injections, evaluated over 72 days, five mice per group): 60% | Change in body weight during the treatment (weight at start: 100%) [2]: 99% ± 5%
